Literature values as cited in patent publication US20190091218A1 (priority 2016, published 2019).
Where two headings read alike, the source gives them in different places.

Key:
[1] = standard 10 mg oral dose
[2] = not given; remark: listed apart in the source
H1 receptor = H1 receptor (Homo sapiens, UniProt P35367); conditions: acidic pH
[3] = tested on: histamine induced wheal and flare

Sequence of H1 receptor (P35367 whole entry): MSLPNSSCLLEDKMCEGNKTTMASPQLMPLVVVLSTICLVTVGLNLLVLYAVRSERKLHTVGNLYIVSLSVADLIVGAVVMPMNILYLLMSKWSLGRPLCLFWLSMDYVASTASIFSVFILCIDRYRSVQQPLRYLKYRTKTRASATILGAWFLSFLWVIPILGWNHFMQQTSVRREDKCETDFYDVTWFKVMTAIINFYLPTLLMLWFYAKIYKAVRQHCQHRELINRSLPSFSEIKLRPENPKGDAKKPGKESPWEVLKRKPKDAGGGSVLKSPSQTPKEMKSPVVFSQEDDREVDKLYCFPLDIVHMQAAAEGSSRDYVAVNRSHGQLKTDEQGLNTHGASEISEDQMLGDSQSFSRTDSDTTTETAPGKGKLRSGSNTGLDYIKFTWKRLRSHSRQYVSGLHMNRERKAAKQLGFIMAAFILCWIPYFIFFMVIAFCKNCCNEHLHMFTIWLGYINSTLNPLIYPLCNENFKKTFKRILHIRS

Structure (SMILES)	dose administered without clinically relevant side effects (adult patients, 22 weeks)	dose administered without clinically relevant side effects (short-term studies, approximately one week)	mean AUC [1]	time to steady state level ([2]; in vivo)	peak concentration ([2]; repeated 5 mg once daily oral dose)	peak concentration ([2]; single 5 mg oral dose)	dose that can be safely administered (studies in humans)	receptor affinity over first generation mepyramine (H1 receptor)	levels of HRV-induced increases in ICAM-1 (human rhinovirus (HRV); added before, after, or at the time of the HRV infection)	HRV-induced ICAM-1, cytokine expression, and viral replication (human rhinovirus (HRV); airway epithelial cells from nose and lung)	potency among modern generation antihistamines ([3]; histamine induced wheal and flare data)	effectiveness versus fexofenadine ([3]; levocetirizine 5 mg per day vs fexofenadine 180 mg per day)
CC(C)(O)c1ccccc1CC[C@@H](SCC1(CC(=O)O)CC1)c1cccc(/C=C/c2ccc3ccc(Cl)cc3n2)c1 [montelukast]	up to 200 mg/day	up to 900 mg/day	2689 ng/h/mL									
O=C(O)COCCN1CCN([C@H](c2ccccc2)c2ccc(Cl)cc2)CC1 [levocetirizine]				40 h	308 ng/mL	270 ng/mL	up to 30 mg/day	5 ×	reduced	inhibit	most potent of the five modern generation antihistamines	more effective than fexofenadine
